# Like-named read-outs stand apart in the source and are kept apart here.
# Assays:
# D2S receptor = target: T1, D2S receptor (Homo sapiens, UniProt P14416); assay: D2S receptor cAMP agonist test; type: cell-based; details: HEK293 cell strain stably expressing D2S receptor; for EC50: cAMP, forskolin 5×10^−7 M; for D2S Max Act %: positive control dopamine 1×10^−7 M
# T1 construct: expressed in transfected cells
# Source text: (§1) cAMP detection kit was purchased from Cisbio; an HEK293 cell strain stably expressing D2S receptor was constructed by Shanghai Shujing Biopharma Co., Ltd.; dopamine, forskolin, and IBMX were purchased from Sigma; ProxiPlate-384 well plates were purchased from PerkinElmer; HBSS was purchased from Thermo Fisher Scientific.
# (§2) • (1) The cultured cells were digested with trypsin, and the cell suspension was washed with HBSS buffer after the digestion was terminated. The medium was removed by centrifugation at 200×g. The pellet was resuspended in an appropriate amount of experimental buffer, and 20 μL of cell suspension was counted using a cell counter and diluted to 0.6×10^6 cells/mL. • (2) 5 μL of cell suspension was added to a ProxiPlate-384 well plate (3×10^3 cells/well). • (3) Test compounds were serially diluted in an experimental buffer, and 5 μL of the mixed solution was transferred to the reaction plate with Bravo.
# 5-HT1A receptor = target: T2, 5-HT1A receptor (Homo sapiens, UniProt P08908); assay: 5-HT1A receptor cAMP agonist test; type: cell-based; details: HEK293 cell strain stably expressing 5-HT1A receptor; for EC50: cAMP, forskolin 2.5×10^−7 M; for 5-HT1A Max Act %: positive control serotonin 10^−6 M
# T2 construct: expressed in transfected cells
# T2 sequence (P08908 1-422): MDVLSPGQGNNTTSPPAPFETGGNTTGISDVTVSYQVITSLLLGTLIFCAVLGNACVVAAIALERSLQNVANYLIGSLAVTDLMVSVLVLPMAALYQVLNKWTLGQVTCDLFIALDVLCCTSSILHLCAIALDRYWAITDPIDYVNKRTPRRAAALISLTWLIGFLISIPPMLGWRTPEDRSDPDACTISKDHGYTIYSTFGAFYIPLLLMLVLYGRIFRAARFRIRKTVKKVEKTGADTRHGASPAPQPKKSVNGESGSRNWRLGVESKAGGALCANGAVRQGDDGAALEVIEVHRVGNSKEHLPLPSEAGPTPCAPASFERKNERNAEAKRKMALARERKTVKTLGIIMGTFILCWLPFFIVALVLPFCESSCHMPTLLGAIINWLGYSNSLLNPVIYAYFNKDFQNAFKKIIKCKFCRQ
# Source text: as §1, with “• cAMP” for “cAMP”, “5-HT1A” for “D2S”, “serotonin,” for “dopamine,”
# as §2, with “0.4×10^6” for “0.6×10^6”, “(2×10^3” for “(3×10^3”
# 5-HT2A receptor = 5-HT2A receptor (Homo sapiens, UniProt P28223); assay: Calcium flux test for 5-HT2A receptor; type: cell-based; details: CHO cell strain stably expressing 5-HT2A receptor; for IC50: calcium flux, antagonism of serotonin; for 5-HT2A Max Inh %: positive control ketanserin 10^−7 M
# Sequence of 5-HT2A receptor (P28223 whole entry): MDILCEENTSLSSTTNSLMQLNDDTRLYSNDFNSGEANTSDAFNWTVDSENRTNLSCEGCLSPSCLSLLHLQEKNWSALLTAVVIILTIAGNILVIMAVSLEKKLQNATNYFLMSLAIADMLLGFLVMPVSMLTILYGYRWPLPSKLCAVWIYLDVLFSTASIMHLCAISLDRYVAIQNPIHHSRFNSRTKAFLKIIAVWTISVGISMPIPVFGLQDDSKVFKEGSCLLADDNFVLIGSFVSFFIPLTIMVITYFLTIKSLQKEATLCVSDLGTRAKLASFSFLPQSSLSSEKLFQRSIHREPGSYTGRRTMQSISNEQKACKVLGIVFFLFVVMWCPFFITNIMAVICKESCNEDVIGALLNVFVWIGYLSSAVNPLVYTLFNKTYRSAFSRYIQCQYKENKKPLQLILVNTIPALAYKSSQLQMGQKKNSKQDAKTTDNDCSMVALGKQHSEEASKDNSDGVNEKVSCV
# Experimental: • Fluo-4 calcium flux detection kit was purchased from Invitrogen; a CHO cell strain stably expressing 5-HT2A receptor was purchased from PerkinElmer; serotonin was purchased from Sigma; ketanserin was purchased from Targetmol; polylysine-coated 384-well plates and 384-well compound plates were purchased from Greiner Bio-One. Molecular Device FLIPR, Agilent Bravo liquid workstation, and Countstar BioTech cell counter.
# • (1) The cryopreserved cells were rapidly thawed in a water bath at 37° C., and the cells were resuspended in a plating medium. The cryopreservation solution was removed by centrifugation at 200×g. The pellet was resuspended in an appropriate amount of plating medium, 20 μL of cell suspension was counted using a cell counter, and the cell density was diluted to 1×10^6 cells/mL. • (2) 20 μL of cell suspension was added to a polylysine-coated 384-well plate (2×10^4 cells/well). • (3) The cell plate was incubated in a 37° C./5% CO2 incubator for 16-20 h.
# • (1) The cell plate was taken out from the incubator and centrifuged at 100×g to remove the medium. 20 μL of experimental buffer was added, and then 20 μL of 2× fluorescent probe solution was added. […] The cell plate and agonist positive compound plate were placed into the FLIPR instrument, the detection program was run, 10 μL of the diluted compound was transferred from the agonist compound plate to the cell plate, and the fluorescence signal was read. […] The cell plate and test compound plate were placed in the FLIPR instrument, the detection program was run, and 10 μL of the diluted compound was transferred from the test compound plate to the cell plate. […] The test compound plate was then taken out, and the agonist positive compound plate with 6×EC50 concentration was placed.
# Inhibition rate (Inhibition %)=(negative control reading value−compound reading value)/(negative control reading value−positive control reading value)×100%
# D2L receptor = target: T3, D2L receptor (Homo sapiens, UniProt P14416); assay: D2L receptor cAMP agonist test; type: cell-based; details: HEK293 cell strain stably expressing D2L receptor; for EC50: cAMP, forskolin 0.5 μM; for D2L Max Act %: positive control dopamine 1 μM
# T3 construct: expressed in transfected cells
# T3 sequence (P14416 whole entry): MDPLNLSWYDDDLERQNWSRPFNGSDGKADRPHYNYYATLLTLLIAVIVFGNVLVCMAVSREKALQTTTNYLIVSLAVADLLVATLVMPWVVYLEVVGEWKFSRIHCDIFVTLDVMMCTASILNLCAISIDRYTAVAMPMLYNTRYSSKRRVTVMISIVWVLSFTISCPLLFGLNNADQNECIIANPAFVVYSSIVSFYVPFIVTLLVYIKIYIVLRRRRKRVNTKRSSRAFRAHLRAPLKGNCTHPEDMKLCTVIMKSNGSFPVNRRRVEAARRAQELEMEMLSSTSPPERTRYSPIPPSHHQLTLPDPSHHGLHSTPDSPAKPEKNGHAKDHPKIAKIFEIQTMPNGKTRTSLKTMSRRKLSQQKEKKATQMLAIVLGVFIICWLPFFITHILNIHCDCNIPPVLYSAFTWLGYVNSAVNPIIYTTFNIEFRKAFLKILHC
# Experimental: as §1, with “• cAMP” for “cAMP”, “D2L” for “D2S”
# • (1) The cryopreserved cells were thawed in a water bath at 37° C., the cell suspension was resuspended in HBSS buffer, and the mixed solution was centrifuged at 750 rpm for 5 min to remove the medium. The pellet was resuspended in an appropriate amount of experimental buffer, and an appropriate amount of cell suspension was diluted to 0.4×10^6 cells/mL. • (2) 5 μL of cell suspension was added to a ProxiPlate-384 well plate (2×10^3 cells/well), and the plate was centrifuged at 1000 rpm for 1 min. • (3) Test compounds were serially diluted in an experimental buffer, and 5 μL of the mixed solution was transferred to the reaction plate with Bravo.
# [1] = Pharmacokinetic test in mice; type: in vivo; details: plasma, 5 mg/kg, oral intragastric, single dose 5 mg/kg
# Experimental: Male ICR mice were administered orally intragastrically, the plasma concentrations of the compounds of the present invention were measured in the mice, the PK parameters were calculated, and the pharmacokinetic evaluation was performed on the compounds of the present invention.
# • (1) Test samples: the compounds of the examples of the present invention, self-made. • (2) Test animals: ICR mice, SPF grade, male, Xuzhou Medical University. • (3) Main test instruments:
# Drug preparation: according to the weight of the weighed drug, the preparation volume was calculated. 5% of DMSO was added firstly. After the drug was fully dissolved, 95% of 20% aqueous PB-cyclodextrin solution was then added, and the mixture was mixed well for later use.
# Administration route: oral intragastric administration. Frequency and duration of administration: single administration.
# ICR mice were stratified according to body weight and then randomly divided into groups of 9 mice each, and the mice were fasted overnight prior to the test. The mice were separately administered orally intragastrically. 50 μL of blood was collected from the fundus vein of the mouse at 0 h, 0.083 h, 0.25 h, 0.5 h, 1 h, 2 h, 4 h, 8 h, 12 h, and 24 h (3 time points for each mouse) to a sample tube containing heparin sodium as an anticoagulant, and the tube was placed in wet ice and centrifuged at 4000 r·min^−1 for 10 min. The plasma was separated, and cryopreserved in a refrigerator at −80° C. for testing.
# The concentrations of plasma samples were measured by high performance liquid chromatography-tandem mass spectrometry (LC-MS/MS). The retention times of the compounds and internal standard, chromatogram acquisitions, and integrals of chromatograms were processed using the software Analyst (AB SCIEX), and the data statistics were processed using the software Watson LIMS (Thermo Fisher Scientific) or Analyst (AB SCIEX). The concentration of plasma was processed using a non-compartmental model of the pharmacokinetic software WinNonlin™ Version 6.3 (Pharsight, Mountain View, CA), and pharmacokinetic parameters were calculated by a linear log-trapezoidal method.
# [2] = male, ICR, mouse, po, read-out: AUC(0-inf)
# [3] = male, ICR, mouse, po, read-out: Cmax
# T1 sequence (P14416 1-414 isoform P14416-2): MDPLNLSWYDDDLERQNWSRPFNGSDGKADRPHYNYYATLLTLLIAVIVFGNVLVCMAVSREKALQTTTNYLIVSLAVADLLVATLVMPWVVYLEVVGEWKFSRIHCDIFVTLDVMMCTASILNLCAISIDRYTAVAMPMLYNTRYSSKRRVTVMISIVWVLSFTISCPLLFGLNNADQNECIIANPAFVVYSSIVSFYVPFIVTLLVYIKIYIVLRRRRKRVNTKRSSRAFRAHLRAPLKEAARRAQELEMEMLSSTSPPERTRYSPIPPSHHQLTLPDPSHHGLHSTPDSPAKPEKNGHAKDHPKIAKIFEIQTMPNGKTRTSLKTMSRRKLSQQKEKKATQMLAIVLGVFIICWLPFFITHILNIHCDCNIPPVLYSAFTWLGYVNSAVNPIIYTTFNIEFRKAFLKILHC
SMILES,EC50 (D2S receptor),D2S Max Act % (D2S receptor),EC50 (5-HT1A receptor),5-HT1A Max Act % (5-HT1A receptor),IC50 (5-HT2A receptor),5-HT2A Max Inh % (5-HT2A receptor),EC50 (D2L receptor),D2L Max Act % (D2L receptor),"half-life ([1]; male, ICR, mouse, po)","AUC(0-inf) [1, 2]","Cmax [1, 3]",AUC(0-inf) ([1]; male ICR mice),Cmax ([1]; male ICR mice),t1/2 ([1]; male ICR mice)
"O=C1Nc2cc(OCCCCN3CCN(c4cccc(Cl)c4Cl)CC3)ccc2[C@H]2C[C@@H]12 (single isomer, unassigned) [Example 1-P1]",0.94 nM,111.9%,1800 nM,33.9%,745 nM,100.3%,1.07 nM,47.7%,34.3 h,13100 ng·h/mL,341 ng/mL,–,–,–
"O=C1Nc2cc(OCCCCN3CCN(c4cccc(Cl)c4Cl)CC3)ccc2[C@@H]2C[C@H]12 (single isomer, unassigned) [Example 1-P2]",1.49 nM,113.8%,1210 nM,45.2%,737 nM,100.3%,0.61 nM,33.1%,10.8 h,7100 ng·h/mL,430 ng/mL,–,–,–
"O=C1Nc2cc(OCCCCN3CCN(c4cccc5sccc45)CC3)ccc2C2CC12 (single isomer, unassigned) [Example 42-P1]",1 nM,102.0%,143 nM,62.9%,1950 nM,100.5%,0.99 nM,29.6%,4.1 h,8000 ng·h/mL,1180 ng/mL,–,–,–
"O=C1Nc2cc(OCCCCN3CCN(c4cccc5c4CCO5)CC3)ccc2C2CC12 (single isomer, unassigned) [Example 45-P2]",0.89 nM,111.5%,200 nM,52.8%,411 nM,100.0%,0.62 nM,41.5%,–,–,–,4083.7 ng·h/mL,660.0 ng/mL,3.0 h
"O=C1Nc2cc(OCCCCN3CCN(c4cccc5c4CCO5)CC3)ccc2C2CC12 (stereo not shown) [Example 45, 5-(4-(4-(2,3-Dihydrobenzofuran-4-yl)piperazin-1-yl)butoxy)-1,1a,3,7b-tetrahydro-2H-cyclopropa c quinolin-2-one]",0.93 nM,105.6%,253 nM,54.7%,460 nM,100.1%,0.44 nM,41.3%,6.1 h,9650 ng·h/mL,1160 ng/mL,–,–,–

# From patent US20240368115A1, “REGULATOR CONTAINING TRICYCLIC DERIVATIVE, PREPARATION METHOD THEREFOR AND APPLICATION THEREOF” (SHUJING BIOPHARMA CO., LTD, priority 2021, published 2024)
